# Legend:
# [1] = tested on: human GLP-1R (GLP-1R-YFP); assay: Confocal microscopy of receptor internalization; assay type: cell-based; conditions: 5 min after 1 µM GLP-1; HEK-293 transiently expressing GLP-1R-YFP; live cell confocal microscopy; at least three experiments
# Protocol: HEK-293 cells transiently expressing GLP-1R-YFP were plated on to a poly-D-lysin-coated coverslip and mounted on to an “Attofluor” holder (Molecular Probes, Leiden, The Netherlands). The cellular location of GLP-1R-YFP was monitored by live cell confocal microscopy performed on a Zeiss LSM 510 meta system (Carl Zeiss, Oberkochen, Germany). YFP was excited with the 514 nm line of an argon laser, and images were taken with an oil-immersion 63× lens using the factory settings for YFP.
# GLP-1R = conditions: radioligand binding and time-resolved fluorescence resonance energy transfer; authors state own rate is in the same range; ref [22],[23]; cited from earlier work
smiles,measurement,setting,value
"CC[C@H](C)[C@H](NC(=O)[C@H](Cc1ccccc1)NC(=O)[C@H](CCC(=O)O)NC(=O)[C@H](CCCCN)NC(=O)[C@H](C)NC(=O)[C@H](C)NC(=O)[C@H](CCC(N)=O)NC(=O)CNC(=O)[C@H](CCC(=O)O)NC(=O)[C@H](CC(C)C)NC(=O)[C@H](Cc1ccc(O)cc1)NC(=O)[C@H](CO)NC(=O)[C@H](CO)NC(=O)[C@@H](NC(=O)[C@H](CC(=O)O)NC(=O)[C@H](CO)NC(=O)[C@@H](NC(=O)[C@H](Cc1ccccc1)NC(=O)[C@@H](NC(=O)CNC(=O)[C@H](CCC(=O)O)NC(=O)[C@H](C)NC(=O)[C@@H](N)Cc1c[nH]cn1)[C@@H](C)O)[C@@H](C)O)C(C)C)C(=O)N[C@@H](C)C(=O)N[C@@H](Cc1c[nH]c2ccccc12)C(=O)N[C@@H](CC(C)C)C(=O)N[C@H](C(=O)N[C@@H](CCCCN)C(=O)NCC(=O)N[C@@H](CCCNC(=N)N)C(N)=O)C(C)C [GLP-1, glucagon-like peptide-1]",cellular location of GLP-1R-YFP after agonist stimulation,[1],the receptor appeared as punctate dots in the cytoplasm
same,t1/2 of receptor internalization (range of previous studies),GLP-1R,2 to 3 min
